Laboratory results from US20240190890A1, “MK2 INHIBITORS AND USES THEREOF” (Bristol-Myers Squibb Company, priority 2022, published 2024).
pIC50: −log10 of the molar value.

Target: p38a activated, mitogen-activated protein kinase-activated protein kinase 2 (MAPKAP-K2 or MK2) enzyme (Homo sapiens (Human), UniProt P49137)
Assay: MK2 Omnia continuous-read kinase assay for compound potency
Format: biochemical
Settings: [MK-2]=0.4 nM, [ATP]=10 μM, [ST3-Sox]=10 μM; room temperature
In short: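 Continuous Sox-peptide fluorescence read (ex360/em485) every 71 s over 2 h at room temperature. Reactions: 10 μM each of ATP (at apparent Km) and S/T3-Sox, 0.4 nM p38a-activated MK2, pH 7.5 Tris/MgCl2 buffer. Initial rates yield % inhibition and IC50; single-exponential kobs values yield apparent kinact/KI.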

p38a activated, mitogen-activated protein kinase-activated protein kinase 2 (MAPKAP-K2 or MK2) enzyme, sequence (P49137 whole entry): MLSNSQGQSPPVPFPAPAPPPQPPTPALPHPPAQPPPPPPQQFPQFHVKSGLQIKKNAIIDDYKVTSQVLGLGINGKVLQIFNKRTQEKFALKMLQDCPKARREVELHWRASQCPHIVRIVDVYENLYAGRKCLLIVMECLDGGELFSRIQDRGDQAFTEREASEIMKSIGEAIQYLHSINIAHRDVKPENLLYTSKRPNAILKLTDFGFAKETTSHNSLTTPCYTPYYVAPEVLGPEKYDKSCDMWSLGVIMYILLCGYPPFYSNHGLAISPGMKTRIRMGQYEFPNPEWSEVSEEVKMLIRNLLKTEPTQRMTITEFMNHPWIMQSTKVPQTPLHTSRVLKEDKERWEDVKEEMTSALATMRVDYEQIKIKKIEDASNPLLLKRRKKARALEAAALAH

Compound	pIC50
C=C(CN1CCOCC1)c1cc(-c2ccc3c(ccc4sc5c(c43)NC[C@@H](C)NC5=O)n2)ccn1 [Example I-131, (R)-10-methyl-3-(2-(3-morpholinoprop-1-en-2-yl)pyridin-4-yl)-9,10,11,12-tetrahydro-8H-[1,4]diazepino[5′,6′:4,5]thieno[3,2-f]quinolin-8-one]	8.52
C#Cc1cc(N2CCN(C)CC2)nc(-c2ccc3c(ccc4sc5c(c43)NC[C@@H](C)NC5=O)n2)n1 [Example I-61, (R)-3-(4-ethynyl-6-(4-methylpiperazin-1-yl)pyrimidin-2-yl)-10-methyl-9,10,11,12-tetrahydro-8H-[1,4]diazepino[5′,6′:4,5]thieno[3,2-f]quinolin-8-one]	7.14
C#Cc1cc(-c2ccc3c(ccc4sc5c(c43)NC[C@@H](C)NC5=O)n2)nc(CO)n1 [Example I-78, (R)-3-(6-ethynyl-2-(hydroxymethyl)pyrimidin-4-yl)-10-methyl-9,10,11,12-tetrahydro-8H-[1,4]diazepino[5′,6′:4,5]thieno[3,2-f]quinolin-8-one]	9.00
C=Cc1nc(C(=O)OCC)c(-c2ccc3c(ccc4sc5c(c43)NC[C@@H](C)NC5=O)n2)s1 [Example I-234, ethyl (R)-5-(10-methyl-8-oxo-9,10,11,12-tetrahydro-8H-[1,4]diazepino[5′,6′:4,5]thieno[3,2-f]quinolin-3-yl)-2-vinylthiazole-4-carboxylate]	7.74
C#Cc1nncn1-c1ccc2c(ccc3sc4c(c32)NC[C@@H](C)NC4=O)n1 [Example I-204, (R)-3-(3-ethynyl-4H-1,2,4-triazol-4-yl)-10-methyl-9,10,11,12-tetrahydro-8H-[1,4]diazepino[5′,6′:4,5]thieno[3,2-f]quinolin-8-one]	6.26
C[C@@H]1CNc2c(sc3ccc4nc(-c5cc(Cl)nc(N6CCN(C)CC6)c5)ccc4c23)C(=O)N1 [Example I-94, (R)-3-(2-chloro-6-(4-methylpiperazin-1-yl)pyridin-4-yl)-10-methyl-9,10,11,12-tetrahydro-8H-[1,4]diazepino[5′,6′:4,5]thieno[3,2-f]quinolin-8-one]	7.37
[2H]C([2H])([2H])C(O)c1cnc(C=C)cc1-c1ccc2c(ccc3sc4c(c32)NC[C@@H](C)NC4=O)n1 (stereo partly drawn) [Example I-260, (10R)-3-(5-(1-hydroxyethyl-2,2,2-d3)-2-vinylpyridin-4-yl)-10-methyl-9,10,11,12-tetrahydro-8H-[1,4]diazepino[5′,6′:4,5]thieno[3,2-f]quinolin-8-one]	7.80
C=Cc1cc(-c2ccc3c(ccc4sc5c(c43)NC[C@@H](C)NC5=O)n2)nc(C#CC(C)(C)N)n1 [Example I-66, (R)-3-(2-(3-amino-3-methylbut-1-yn-1-yl)-6-vinylpyrimidin-4-yl)-10-methyl-9,10,11,12-tetrahydro-8H-[1,4]diazepino[5′,6′:4,5]thieno[3,2-f]quinolin-8-one]	8.05
C=Cc1cc(-c2ccc3c(ccc4sc5c(c43)NC[C@@H](C)NC5=O)n2)cc(C)n1 [Example I-110, (R)-10-methyl-3-(2-methyl-6-vinylpyridin-4-yl)-9,10,11,12-tetrahydro-8H-[1,4]diazepino[5′,6′:4,5]thieno[3,2-f]quinolin-8-one]	8.10
C[C@@H]1CNc2c(sc3ccc4nc(-c5nc(Cl)ncc5F)ccc4c23)C(=O)N1 [Example I-273, (R)-3-(2-chloro-5-fluoropyrimidin-4-yl)-10-methyl-9,10,11,12-tetrahydro-8H-[1,4]diazepino[5′,6′:4,5]thieno[3,2-f]quinolin-8-one]	6.82
COc1cnc(Cl)nc1-c1ccc2c(ccc3sc4c(c32)NC[C@@H](C)NC4=O)n1 [Example I-10, (R)-3-(2-chloro-5-methoxypyrimidin-4-yl)-10-methyl-9,10,11,12-tetrahydro-8H-[1,4]diazepino[5′,6′:4,5]thieno[3,2-f]quinolin-8-one]	6.54
C#Cc1cc(-c2ccc3c(ccc4sc5c(c43)NC[C@@H](C)NC5=O)n2)c(C#N)cn1 [Example I-162, (R)-6-ethynyl-4-(10-methyl-8-oxo-9,10,11,12-tetrahydro-8H-[1,4]diazepino[5′,6′:4,5]thieno[3,2-f]quinolin-3-yl)nicotinonitrile]	8.70
C=Cc1nc(CN2CCN(C)CC2)cc(-c2ccc3c(ccc4sc5c(c43)NC[C@@H](C)NC5=O)n2)n1 [Example I-88, (R)-10-methyl-3-(6-((4-methylpiperazin-1-yl)methyl)-2-vinylpyrimidin-4-yl)-9,10,11,12-tetrahydro-8H-[1,4]diazepino[5′,6′:4,5]thieno[3,2-f]quinolin-8-one]	7.82
C=Cc1cc(-c2ccc3c(ccc4sc5c(c43)NC[C@@H](C)NC5=O)n2)c(CN2CC3(COC3)C2)cn1 [Example I-263, (R)-3-(5-((2-oxa-6-azaspiro[3.3]heptan-6-yl)methyl)-2-vinylpyridin-4-yl)-10-methyl-9,10,11,12-tetrahydro-8H-[1,4]diazepino[5′,6′:4,5]thieno[3,2-f]quinolin-8-one]	7.33

Other lines, results leading:

pIC50	Compound
8.52	C#Cc1cc(-c2ccc3c(ccc4sc5c(c43)NC[C@@H](C)NC5=O)n2)cnn1 [Example I-51, (R)-3-(6-ethynylpyridazin-4-yl)-10-methyl-9,10,11,12-tetrahydro-8H-[1,4]diazepino[5′,6′:4,5]thieno[3,2-f]quinolin-8-one]
6.62	C[C@@H]1CNc2c(sc3ccc4nc(-c5cc(Cl)ncc5C(F)F)ccc4c23)C(=O)N1 [Example I-93, (R)-3-(2-chloro-5-(difluoromethyl)pyridin-4-yl)-10-methyl-9,10,11,12-tetrahydro-8H-[1,4]diazepino[5′,6′:4,5]thieno[3,2-f]quinolin-8-one]
8.30	C#Cc1cc(-c2ccc3c(ccc4sc5c(c43)NC[C@@H](C)NC5=O)n2)ncn1 [Example I-38, (R)-3-(6-ethynylpyrimidin-4-yl)-10-methyl-9,10,11,12-tetrahydro-8H-[1,4]diazepino[5′,6′:4,5]thieno[3,2-f]quinolin-8-one]
7.22	C#Cc1cc(-c2ccc3c(ccc4sc5c(c43)NC[C@@H](C)NC5=O)n2)cc(CO)n1 [Example I-98, (R)-3-(2-ethynyl-6-(hydroxymethyl)pyridin-4-yl)-10-methyl-9,10,11,12-tetrahydro-8H-[1,4]diazepino[5′,6′:4,5]thieno[3,2-f]quinolin-8-one]
7.41	C[C@@H]1CNc2c(sc3ccc4nc(-c5cc(CO)nc(Cl)n5)ccc4c23)C(=O)N1 [Example I-84, (R)-3-(2-chloro-6-(hydroxymethyl)pyrimidin-4-yl)-10-methyl-9,10,11,12-tetrahydro-8H-[1,4]diazepino[5′,6′:4,5]thieno[3,2-f]quinolin-8-one]
9.00	C=Cc1cc(-c2ccc3c(ccc4sc5c(c43)NC[C@@H](C)NC5=O)n2)nc(COC)n1 [Example I-13, (R)-3-(2-(methoxymethyl)-6-vinylpyrimidin-4-yl)-10-methyl-9,10,11,12-tetrahydro-8H-[1,4]diazepino[5′,6′:4,5]thieno[3,2-f]quinolin-8-one]
6.91	C=Cc1sncc1-c1ccc2c(ccc3sc4c(c32)NC[C@@H](C)NC4=O)n1 [Example I-229, (R)-10-methyl-3-(5-vinylisothiazol-4-yl)-9,10,11,12-tetrahydro-8H-[1,4]diazepino[5′,6′:4,5]thieno[3,2-f]quinolin-8-one]
8.30	C=Cc1cc(-c2ccc3c(ccc4sc5c(c43)NC[C@@H](C)NC5=O)n2)c(C)c(CN2CCOCC2)n1 [Example I-197, (R)-10-methyl-3-(3-methyl-2-(morpholinomethyl)-6-vinylpyridin-4-yl)-9,10,11,12-tetrahydro-8H-[1,4]diazepino[5′,6′:4,5]thieno[3,2-f]quinolin-8-one]
9.00	C=Cc1nccn1-c1ccc2c(ccc3sc4c(c32)NC[C@@H](C)NC4=O)n1 [Example I-164, (R)-10-methyl-3-(2-vinyl-1H-imidazol-1-yl)-9,10,11,12-tetrahydro-8H-[1,4]diazepino[5′,6′:4,5]thieno[3,2-f]quinolin-8-one]
7.96	C[C@@H]1CNc2c(sc3ccc4nc(-c5ccnc(/C=C/CN(C)C)c5)ccc4c23)C(=O)N1 [Example I-114, (R,E)-3-(2-(3-(dimethylamino)prop-1-en-1-yl)pyridin-4-yl)-10-methyl-9,10,11,12-tetrahydro-8H-[1,4]diazepino[5′,6′:4,5]thieno[3,2-f]quinolin-8-one]
7.05	C[C@@H]1CNc2c(sc3ccc4nc(-c5cncc(Cl)c5)ccc4c23)C(=O)N1 [Example I-81, (R)-3-(5-chloropyridin-3-yl)-10-methyl-9,10,11,12-tetrahydro-8H-[1,4]diazepino[5′,6′:4,5]thieno[3,2-f]quinolin-8-one]
6.00	C#Cc1cc(-c2ccc3c(ccc4sc5c(c43)NC[C@@H](C)NC5=O)n2)cc(N2CCC(F)(F)CC2)n1 [Example I-182, (R)-3-(2-(4,4-difluoropiperidin-1-yl)-6-ethynylpyridin-4-yl)-10-methyl-9,10,11,12-tetrahydro-8H-[1,4]diazepino[5′,6′:4,5]thieno[3,2-f]quinolin-8-one]
8.40	C=Cc1cc(-c2ccc3c(ccc4sc5c(c43)NC[C@@H](C)NC5=O)n2)c(C)cn1 [Example I-109, (R)-10-methyl-3-(5-methyl-2-vinylpyridin-4-yl)-9,10,11,12-tetrahydro-8H-[1,4]diazepino[5′,6′:4,5]thieno[3,2-f]quinolin-8-one]
7.23	C=Cc1cc(-c2ccc3c(ccc4sc5c(c43)NC[C@@H](C)NC5=O)n2)c(Cl)cn1 [Example I-143, (R)-3-(5-chloro-2-vinylpyridin-4-yl)-10-methyl-9,10,11,12-tetrahydro-8H-[1,4]diazepino[5′,6′:4,5]thieno[3,2-f]quinolin-8-one]
7.19	C=Cc1cc(-c2ccc3c(ccc4sc5c(c43)NC[C@@H](C)NC5=O)n2)c(F)cn1 [Example I-70, (R)-3-(5-fluoro-2-vinylpyridin-4-yl)-10-methyl-9,10,11,12-tetrahydro-8H-[1,4]diazepino[5′,6′:4,5]thieno[3,2-f]quinolin-8-one]
